Experiment [1] concerns the target T1, Human immunodeficiency virus type 1 integrase (Human immunodeficiency virus 1, UniProt Q7ZJM1). Briefly: Inhibition of HIV-1 integrase enzyme by 3'-processing method.
Experiment [2] deals with T1, Human immunodeficiency virus type 1 integrase. Description: Inhibition of HIV-1 integrase enzyme.
For experiment [3] the target is unchanged. Briefly: Inhibition of HIV-1 integrase enzyme by 3'-processing method (experiment 1).
The target is the same in experiment [4]. Description: Inhibition of HIV-1 integrase enzyme by 3'-processing method (experiment 2).
Experiment [5] has the same target. Description: Inhibition of HIV-1 integrase enzyme by integration method (experiment 1).
The target is the same in experiment [6]. Description: Inhibition of HIV-1 integrase enzyme by integration method (experiment 2).
For experiment [7] the target is unchanged. Description: Inhibition of HIV-1 integrase enzyme by integration method.

Drawing on ChEMBL document CHEMBL1130409, “Hydrazide-containing inhibitors of HIV-1 integrase” (J Med Chem, 1997), this text covers IC50 for 18 compounds.

T1 sequence (Q7ZJM1 whole entry): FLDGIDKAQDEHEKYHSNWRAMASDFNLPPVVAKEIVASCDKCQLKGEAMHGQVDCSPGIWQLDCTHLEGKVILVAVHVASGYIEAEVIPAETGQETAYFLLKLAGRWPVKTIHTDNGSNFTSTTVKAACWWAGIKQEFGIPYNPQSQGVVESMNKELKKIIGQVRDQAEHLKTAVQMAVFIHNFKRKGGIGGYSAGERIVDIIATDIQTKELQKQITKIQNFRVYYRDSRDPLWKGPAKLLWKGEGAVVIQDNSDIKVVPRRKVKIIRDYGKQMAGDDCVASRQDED

Broadly, the IC50 is the midpoint of a concentration-inhibition curve. A lower IC50 goes with greater potency in that assay. Take `O=C(N/N=C/c1ccccc1O)c1ccccc1O`: the IC50 in experiment [1] and in experiment [2] was more than 100 µM throughout.
For the compound `NNC(=O)c1ccccc1O`, the IC50 in experiment [3] amounted to 46 µM; in experiment [4], 114 µM; in experiment [5], 33 µM; in experiment [6], 43 µM.
On to `NN(CC(O)COc1ccccc1)C(=O)c1ccccc1O` (stereo not given), for which the IC50 in experiment [1] and in experiment [2] was more than 200 µM in each case.
In the case of `O=C(NNCC(O)COc1ccccc1)c1ccccc1O` (stereo not given), the IC50 in experiment [1] and in experiment [7] was more than 200 µM each time.
Consider `Nc1ccccc1C(=O)NNC(=O)c1ccccc1N`, for which the IC50 in experiment [1] and in experiment [2] was more than 100 µM throughout.
For the compound `O=C(NNC(=O)c1ccccc1O)c1ccccc1`, the IC50 in experiment [1] and in experiment [2] was more than 100 µM each time.
As for `O=C(NCCCNC(=O)c1ccccc1O)c1ccccc1O`, the IC50 in experiment [1] and in experiment [2] was more than 200 µM each time.
As for `O=C(NNCc1ccccc1O)c1ccccc1O`, the IC50 came out at 6.7 µM in experiment [1] and 5.2 µM in experiment [2].
The like results for `O=C(NNC(=O)c1ccccc1O)c1ccccc1O` were, in that order, 2.07 µM and 0.73 µM.
The like results for `CC(=O)NNC(=O)c1ccccc1O` were, in that order, more than 100 µM and more than 100 µM.
`Nc1ccccc1C(=O)NNC(=O)c1ccccc1O`: the IC50 in experiment [1] and in experiment [2] was more than 100 µM throughout.
Take `O=C(NNC(=O)c1ccccc1S)c1ccccc1O`: the IC50 was found to be 9.1 µM in experiment [1] and 5.8 µM in experiment [2].
As for `NC(=O)c1ccccc1O` [SALICYLAMIDE], the concentration for half-maximal inhibition (IC50) in experiment [1] and in experiment [2] was more than 100 µM in each case.
`NNC(=O)c1ccccc1S`: the IC50 in experiment [3] is 70 µM; in experiment [4], 79.6 µM; in experiment [5] it was 57.5 µM; in experiment [6] it was 50 µM.
With `O=C(NNC(=O)c1cc2ccccc2cc1O)c1ccccc1O`, the IC50 in experiment [1] was 2.3 µM; in experiment [2], 1.1 µM.
In the same order, the values of `O=C(NNC(=O)c1ccccn1)c1ccccn1` are more than 100 µM and more than 100 µM.
In the same order, the values of `NNC(=O)c1ccccc1N` are more than 100 µM and more than 100 µM.
In the same order, the values of `O=C(NNC(=O)c1ccccc1)c1ccccc1` are more than 100 µM and more than 100 µM.
